Test [1] addresses P300 (Homo sapiens, UniProt Q09472). The experiment in a line: percentage of inhibition (degradation) of p300 at 10 nM, Tables 2-4. It is filed as cell-based. The arrangement: LNCaP or 22RV1 cells that express CBP/P300 proteins were treated with GNE-781 or the bivalent compounds; endogenous in cells; host or cells: LNCaP or 22RV1 (not given). Particulars: read-out: Degradation (10 nM). In outline:
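Degradation was measured at 10 nM. Cells or tissue were lysed in RIPA with protease and phosphatase inhibitors for 30 min at 4 °C and cleared, and protein was quantified by BCA. Lysates were resolved by SDS-PAGE, detected by chemiluminescent immunoblot, and bands were quantified by densitometry.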

In test [2] the test system is LNCaP prostate cancer cell. Kind of test: LNCaP cell viability (CellTiter-Glo). Format: cell-based. Particulars: Homo sapiens, 72 h; LNCaP cell viability, 3 days, CellTiter-Glo; Table 4. Summed up: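 LNCaP cells (5000/well, RPMI 1640 + 10% FBS, 37 °C) treated with compounds in 12-point 3-fold serial dilution for three days. Viability read by CellTiter-Glo luminescence, normalized to untreated cells; IC50 from least-squares nonlinear regression.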
On the technique in general: In ATP-based viability assays light output follows the ATP content of the culture.

Each structure is given as a SMILES string. pIC50: −log10 of the molar value. Read-outs that look alike come from different tables or passages of the source.

Here are results for 11 compounds from patent US20240100170A1, “CYCLIC-AMP RESPONSE ELEMENT BINDING PROTEIN (CBP) AND/OR ADENOVIRAL E1A BINDING PROTEIN OF 300 KDA (P300) DEGRADATION COMPOUNDS AND METHODS OF USE” (CULLGEN (SHANGHAI), INC., priority 2020, published 2024).

P300, sequence (Q09472 whole entry): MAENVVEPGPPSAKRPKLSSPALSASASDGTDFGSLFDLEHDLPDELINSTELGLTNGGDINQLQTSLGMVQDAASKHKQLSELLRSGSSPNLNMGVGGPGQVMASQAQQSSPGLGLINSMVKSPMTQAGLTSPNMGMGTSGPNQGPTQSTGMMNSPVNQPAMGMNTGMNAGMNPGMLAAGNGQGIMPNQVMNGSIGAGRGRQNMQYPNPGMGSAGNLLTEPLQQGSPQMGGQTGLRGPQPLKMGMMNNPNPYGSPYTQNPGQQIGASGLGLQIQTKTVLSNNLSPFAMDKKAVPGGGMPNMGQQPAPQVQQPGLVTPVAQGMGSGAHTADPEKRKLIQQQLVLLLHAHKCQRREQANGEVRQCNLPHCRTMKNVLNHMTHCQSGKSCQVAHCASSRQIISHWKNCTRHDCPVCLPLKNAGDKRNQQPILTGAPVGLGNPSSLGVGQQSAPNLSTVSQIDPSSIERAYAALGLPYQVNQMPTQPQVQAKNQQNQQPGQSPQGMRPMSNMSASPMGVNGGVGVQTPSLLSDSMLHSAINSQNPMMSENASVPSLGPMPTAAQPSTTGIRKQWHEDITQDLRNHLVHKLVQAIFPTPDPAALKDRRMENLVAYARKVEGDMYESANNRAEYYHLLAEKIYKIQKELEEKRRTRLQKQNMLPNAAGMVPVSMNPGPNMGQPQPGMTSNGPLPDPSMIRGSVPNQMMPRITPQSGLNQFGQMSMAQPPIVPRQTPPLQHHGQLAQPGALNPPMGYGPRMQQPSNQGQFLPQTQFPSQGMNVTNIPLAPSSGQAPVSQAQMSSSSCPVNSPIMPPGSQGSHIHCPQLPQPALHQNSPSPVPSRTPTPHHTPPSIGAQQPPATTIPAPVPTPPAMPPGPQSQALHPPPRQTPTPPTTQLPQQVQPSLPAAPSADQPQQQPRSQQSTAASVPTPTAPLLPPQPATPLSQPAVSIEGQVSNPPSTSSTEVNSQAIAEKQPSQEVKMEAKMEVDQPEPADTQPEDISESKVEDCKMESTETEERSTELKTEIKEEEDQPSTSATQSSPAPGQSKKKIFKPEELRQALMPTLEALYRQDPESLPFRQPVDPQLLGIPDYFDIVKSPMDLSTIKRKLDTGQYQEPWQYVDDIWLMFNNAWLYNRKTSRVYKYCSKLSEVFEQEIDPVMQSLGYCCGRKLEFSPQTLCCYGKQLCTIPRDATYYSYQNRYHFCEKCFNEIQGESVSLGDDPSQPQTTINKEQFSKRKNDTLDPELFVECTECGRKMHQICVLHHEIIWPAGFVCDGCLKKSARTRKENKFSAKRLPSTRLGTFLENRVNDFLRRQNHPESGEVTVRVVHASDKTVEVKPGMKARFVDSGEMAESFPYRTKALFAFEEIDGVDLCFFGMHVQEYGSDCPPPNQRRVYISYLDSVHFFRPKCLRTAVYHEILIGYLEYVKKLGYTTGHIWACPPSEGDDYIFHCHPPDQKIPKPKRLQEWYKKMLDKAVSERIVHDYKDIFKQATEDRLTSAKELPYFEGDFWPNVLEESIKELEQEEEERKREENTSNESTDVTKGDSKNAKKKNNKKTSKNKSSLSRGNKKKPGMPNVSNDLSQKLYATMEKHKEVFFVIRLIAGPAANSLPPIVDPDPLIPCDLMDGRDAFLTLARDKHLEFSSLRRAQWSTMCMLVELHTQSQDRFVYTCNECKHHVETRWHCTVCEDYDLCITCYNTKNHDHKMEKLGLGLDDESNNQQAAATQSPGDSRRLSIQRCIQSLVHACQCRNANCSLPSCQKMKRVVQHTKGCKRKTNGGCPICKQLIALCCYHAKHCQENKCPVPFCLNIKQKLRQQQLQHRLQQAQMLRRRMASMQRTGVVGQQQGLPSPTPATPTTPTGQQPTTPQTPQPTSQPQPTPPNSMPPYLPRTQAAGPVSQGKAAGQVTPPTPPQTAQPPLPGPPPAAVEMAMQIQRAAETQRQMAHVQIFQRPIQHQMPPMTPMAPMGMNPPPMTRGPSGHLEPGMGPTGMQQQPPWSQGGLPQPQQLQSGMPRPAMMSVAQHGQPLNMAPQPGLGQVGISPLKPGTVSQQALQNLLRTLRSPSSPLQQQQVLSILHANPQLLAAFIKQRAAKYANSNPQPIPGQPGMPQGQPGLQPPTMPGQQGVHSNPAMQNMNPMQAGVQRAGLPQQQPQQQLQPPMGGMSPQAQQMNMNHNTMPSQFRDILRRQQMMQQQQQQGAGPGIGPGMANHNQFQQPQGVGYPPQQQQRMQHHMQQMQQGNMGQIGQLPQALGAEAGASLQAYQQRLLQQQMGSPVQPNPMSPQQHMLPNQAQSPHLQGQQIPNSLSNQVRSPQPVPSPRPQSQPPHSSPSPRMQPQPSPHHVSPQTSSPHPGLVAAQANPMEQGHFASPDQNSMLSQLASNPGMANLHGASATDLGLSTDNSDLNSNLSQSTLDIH

One may read the pIC50 as the IC50 on a negative log10 scale, so that one unit is a factor of ten. As for `CC(=O)N1CCc2c(c(N3CCCc4cc(-c5cnn(C)c5)c(C(F)F)cc43)nn2C2CCN(C(=O)CCN3CCN(CCCc4cccc5c4n(C)c(=O)n5C4CCC(=O)NC4=O)CC3)CC2)C1` (stereo not shown) [P-239, 3-(4-(3-(4-(3-(4-(5-Acetyl-3-(7-(difluoromethyl)-6-(1-methyl-1H-pyrazol-4-yl)-3,4-dihydroquinolin-1(2H)-yl)-4,5,6,7-tetrahydro-1H-pyrazolo[4,3-c]pyridin-1-yl)piperidin-1-yl)-3-oxopropyl)piperazin-1-yl)propyl)-3-methyl-2-oxo-2,3-dihydro-1H-benzo[d]imidazol-1-yl)piperidine-2,6-dione], the inhibition at 0.01 µM in test [1] (p300, 10 nM, Table 4) is under 20%. Also, the pIC50 in test [2] is 6.58.

As for `CC(=O)N1CCc2c(c(N3CCCc4cc(-c5cnn(C)c5)c(C(F)F)cc43)nn2C2CCN(C(=O)CCCCCCNc3ccc(C(=O)NC4CCC(=O)NC4=O)c4ncccc34)CC2)C1` (stereo not shown) [P-240, 5-((7-(4-(5-acetyl-3-(7-(difluoromethyl)-6-(1-methyl-1H-pyrazol-4-yl)-3,4-dihydroquinolin-1(2H)-yl)-4,5,6,7-tetrahydro-1H-pyrazolo[4,3-c]pyridin-1-yl)piperidin-1-yl)-7-oxoheptyl)amino)-N-(2,6-dioxopiperidin-3-yl)quinoline-8-carboxamide], in test [1] (p300, 10 nM, Table 4), the inhibition at 0.01 µM is over 80%. For the same compound, in test [2], the pIC50 was 8.85.

As for `CC(=O)N1CCc2c(c(N3CCCc4cc(-c5cnn(C)c5)c(C(F)F)cc43)nn2C2CCN(C(=O)CCCCNc3ccc(C(=O)NC4CCC(=O)NC4=O)c4ncccc34)CC2)C1` (stereo not shown) [P-241, 5-((5-(4-(5-acetyl-3-(7-(difluoromethyl)-6-(1-methyl-1H-pyrazol-4-yl)-3,4-dihydroquinolin-1(2H)-yl)-4,5,6,7-tetrahydro-1H-pyrazolo[4,3-c]pyridin-1-yl)piperidin-1-yl)-5-oxopentyl)amino)-N-(2,6-dioxopiperidin-3-yl)quinoline-8-carboxamide], the inhibition at 0.01 µM in test [1] (p300, 10 nM, Table 4) was over 80%. The pIC50 in test [2] is 8.85.

Take `CC(=O)N1CCc2c(c(N3CCCc4cc(-c5cnn(C)c5)c(C(F)F)cc43)nn2C2CCN(C(=O)CCCCCNc3ccc(C(=O)NC4CCC(=O)NC4=O)c4ncccc34)CC2)C1` (stereo not shown) [P-242, 5-((6-(4-(5-acetyl-3-(7-(difluoromethyl)-6-(1-methyl-1H-pyrazol-4-yl)-3,4-dihydroquinolin-1(2H)-yl)-4,5,6,7-tetrahydro-1H-pyrazolo[4,3-c]pyridin-1-yl)piperidin-1-yl)-6-oxohexyl)amino)-N-(2,6-dioxopiperidin-3-yl)quinoline-8-carboxamide]: the inhibition at 0.01 µM in test [1] (p300, 10 nM, Table 4) was over 80%. For the same compound, the pIC50 in test [2] was 8.96.

Consider `CC(=O)N1CCc2c(c(N3CCCc4cc(-c5cnn(C)c5)c(C(F)F)cc43)nn2C2CCN(CCCN3CCC(C#Cc4ccc5c(c4)n(C)c(=O)n5C4CCC(=O)NC4=O)CC3)CC2)C1` (stereo not shown) [P-243, 3-(5-((1-(3-(4-(5-acetyl-3-(7-(difluoromethyl)-6-(1-methyl-1H-pyrazol-4-yl)-3,4-dihydroquinolin-1(2H)-yl)-4,5,6,7-tetrahydro-1H-pyrazolo[4,3-c]pyridin-1-yl)piperidin-1-yl)propyl)piperidin-4-yl)ethynyl)-3-methyl-2-oxo-2,3-dihydro-1H-benzo[d]imidazol-1-yl)piperidine-2,6-dione], for which the inhibition at 0.01 µM in test [1] (p300, 10 nM, Table 4) is over 80%. For the same compound, in test [2], the pIC50 is 9.70.

As to `CC(=O)N1CCc2c(c(N3CCCc4cc(-c5cnn(C)c5)c(C(F)F)cc43)nn2C2CCN(CCCN3CCC(CCc4ccc5c(c4)n(C)c(=O)n5C4CCC(=O)NC4=O)CC3)CC2)C1` (stereo not shown) [P-244, 3-(5-(2-(1-(3-(4-(5-acetyl-3-(7-(difluoromethyl)-6-(1-methyl-1H-pyrazol-4-yl)-3,4-dihydroquinolin-1(2H)-yl)-4,5,6,7-tetrahydro-1H-pyrazolo[4,3-c]pyridin-1-yl)piperidin-1-yl)propyl)piperidin-4-yl)ethyl)-3-methyl-2-oxo-2,3-dihydro-1H-benzo[d]imidazol-1-yl)piperidine-2,6-dione], the inhibition at 0.01 µM in test [1] (p300, 10 nM, Table 4) is over 80%. The compound also gave a pIC50 in test [2] of 9.10.

With `CC(=O)N1CCc2c(c(N3CCCc4cc(-c5cnn(C)c5)c(C(F)F)cc43)nn2C2CCN(CCN3CCC4(CC3)CN(c3cccc5c3C(=O)N(C3CCC(=O)NC3=O)C5=O)C4)CC2)C1` (stereo not shown) [P-245, 4-(7-(2-(4-(5-acetyl-3-(7-(difluoromethyl)-6-(1-methyl-1H-pyrazol-4-yl)-3,4-dihydroquinolin-1(2H)-yl)-4,5,6,7-tetrahydro-1H-pyrazolo[4,3-c]pyridin-1-yl)piperidin-1-yl)ethyl)-2,7-diazaspiro[3.5]nonan-2-yl)-2-(2,6-dioxopiperidin-3-yl)isoindoline-1,3-dione], in test [1], the inhibition at 0.01 µM is 20 to 50%. In test [2], this compound gave a pIC50 of under 6.30.

Consider `CC(=O)N1CCc2c(c(N3CCCc4cc(-c5cnn(C)c5)c(C(F)F)cc43)nn2C2CCN(CCC3CCN(CCCc4cccc5c4C(=O)N(C4CCC(=O)NC4=O)C5=O)CC3)CC2)C1` (stereo not shown) [P-246, 4-(3-(4-(2-(4-(5-acetyl-3-(7-(difluoromethyl)-6-(1-methyl-1H-pyrazol-4-yl)-3,4-dihydroquinolin-1(2H)-yl)-4,5,6,7-tetrahydro-1H-pyrazolo[4,3-c]pyridin-1-yl)piperidin-1-yl)ethyl)piperidin-1-yl)propyl)-2-(2,6-dioxopiperidin-3-yl)isoindoline-1,3-dione], for which the inhibition at 0.01 µM in test [1] (p300, 10 nM, Table 4) was 20 to 50%. In test [2], the pIC50 was 6.53.

`CC(=O)N1CCc2c(c(N3CCCc4cc(-c5cnn(C)c5)c(C(F)F)cc43)nn2C2CCN(CCCN3CCN(c4cccc5c4C(=O)N(C4CCC(=O)NC4=O)C5=O)CC3)CC2)C1` (stereo not shown) [P-247, 4-(4-(3-(4-(5-Acetyl-3-(7-(difluoromethyl)-6-(1-methyl-1H-pyrazol-4-yl)-3,4-dihydroquinolin-1(2H)-yl)-4,5,6,7-tetrahydro-1H-pyrazolo[4,3-c]pyridin-1-yl)piperidin-1-yl)propyl)piperazin-1-yl)-2-(2,6-dioxopiperidin-3-yl)isoindoline-1,3-dione]: the inhibition at 0.01 µM in test [1] (p300, 10 nM, Table 4) is under 20%. For the same compound, the pIC50 in test [2] was under 6.30.

Regarding `CC(=O)N1CCc2c(c(N3CCCc4cc(-c5cnn(C)c5)c(C(F)F)cc43)nn2C2CCN(CCCC3CCN(c4cccc5c4C(=O)N(C4CCC(=O)NC4=O)C5=O)CC3)CC2)C1` (stereo not shown) [P-249, 4-(4-(3-(4-(5-acetyl-3-(7-(difluoromethyl)-6-(1-methyl-1H-pyrazol-4-yl)-3,4-dihydroquinolin-1(2H)-yl)-4,5,6,7-tetrahydro-1H-pyrazolo[4,3-c]pyridin-1-yl)piperidin-1-yl)propyl)piperidin-1-yl)-2-(2,6-dioxopiperidin-3-yl)isoindoline-1,3-dione], the inhibition at 0.01 µM in test [1] (p300, 10 nM, Table 4) was over 80%. This compound gave a pIC50 in test [2] of 10.00.

With `CC(=O)N1CCc2c(c(N3CCCc4cc(-c5cnn(C)c5)c(C(F)F)cc43)nn2C2CCN(CCCN3CCC(C#Cc4cccc5c4n(C)c(=O)n5C4CCC(=O)NC4=O)CC3)CC2)C1` (stereo not shown) [P-250, 3-(4-((1-(3-(4-(5-acetyl-3-(7-(difluoromethyl)-6-(1-methyl-1H-pyrazol-4-yl)-3,4-dihydroquinolin-1(2H)-yl)-4,5,6,7-tetrahydro-1H-pyrazolo[4,3-c]pyridin-1-yl)piperidin-1-yl)propyl)piperidin-4-yl)ethynyl)-3-methyl-2-oxo-2,3-dihydro-1H-benzo[d]imidazol-1-yl)piperidine-2,6-dione], in test [1] (p300, 10 nM, Table 4), the inhibition at 0.01 µM is over 80%. In test [2], this compound had a pIC50 of 9.52.
